Measurements published in patent publication US20160045487A1, “COMPOSITIONS AND METHODS FOR TREATING NEUROPATHY” (CHILDEREN'S MEDICAL CENTER CORPORATION, priority 2013, published 2016).

How the values were obtained:
GFRα1/RET = biological target: T1, GFRα1/RET (UniProt P35546+Q62997); assay: RET phosphorylation in N2A cells transfected with GFRα1; assay type: cell-based, rat GFRα1 in murine N2A cells
T1 construct: N2A cells (which express RET) transfected with GFRα1 or GFRα3 expression constructs; expressed in transfected cells; host or cells: Neuro2A (N2A) cells; GFRα1 plasmid was a gift from Dr. Milbrandt; RET is endogenous
Method: (§1) Since the original report argued that XIB4035 displaces GDNF binding to GFRα1 expressing cells (FIG. 2 in Tokugawa et al., Neurochem Int 42, 81-86 (2003).), potentially ARTN, on TH-luciferase activity and Ret phosphorylation. […] In this experiment, cells were treated with GDNF or ARTN with or without XIB4035 for 10 minutes and cell lysates were either collected immediately or treatment was washed out and replaced with growth media for 30, 60, or 120 minutes. […] Therefore, we tested cells expressing only one GFRα using either N2A cells (which express RET) transfected with GFRα1 or GFRα3 expression constructs, or B(E)2-C cells, which express only GFRα2 together with RET. […] The GFRα1 or GFRα3 transfected N2A cells were then treated with XIB4035 alone, the appropriate ligand for the expressed receptor alone, or XIB4035 and ligand in combination for 10 minutes, and collected lysates immediately after treatment or 60 minutes after washout. […] Similar results were obtained with GFRα2 and NRTN using B(E)2-C cells (FIG. 8). Thus, XIB4035 is a positive modulator of signaling by GDNF family ligands and their receptors, not an agonist for GFRα1 as previously reported.
For phosphorylated Ret immunoblot experiments, cells were treated with various combinations of molecules for 10 minutes and either collected immediately or had treatment washed out and returned to control treatment media for the times indicated prior to cell collection. Lysates were collected in buffer containing: 50 mM Tris-HCL, 1% TX-100, 0.25% Deoxycholic acid, 150 mM sodium chloride, 1 mM EDTA, 0.1 mM sodium fluoride, 0.1 mM sodium pyrophosphate, 0.02 mM sodium orthovanadate, and protease inhibitors Immunoblots were blocked in 5% bovine serum albumin in tris-buffered saline+0.2% Tween 20+0.1 mM sodium fluoride, 0.1 mM sodium pyrophosphate, and 0.02 mM sodium orthovanadate and probed in blocking solution using anti-phospotyrosine (4G10) mouse monoclonal antibody (1:2000; EMD Milipore Corp., Billerica, Mass.). […]

GFRα2/RET = biological target: T2, GFRα2/RET (Homo sapiens, UniProt O00451+P07949); assay: NRTN/GFRα2-induced RET phosphorylation in B(E)2-C cells; assay type: cell-based; conditions: 2 nM NRTN with 20 μM XIB4035, 10 minutes, then 60 minutes growth medium
T2 construct: B(E)2-C cells, which express only GFRα2 together with RET; endogenous in cells; host or cells: B(E)2-C / BE(2)-C cells
Method: B(E)2-C cells, which express GFRα2, were treated under different conditions (no treatment, 2 nM NRTN, or 2 nM NRTN with 20 μM XIB4035) for 10 minutes. Cells were either lysed immediately or after incubation in growth medium for an additional 60 minutes.
as §1, with “Thus, XIB4035 is a positive modulator of signaling by GDNF family ligands and their receptors, not an agonist for GFRα1 as previously reported.” left out

T1 sequence (Q62997 25-430 limits assumed): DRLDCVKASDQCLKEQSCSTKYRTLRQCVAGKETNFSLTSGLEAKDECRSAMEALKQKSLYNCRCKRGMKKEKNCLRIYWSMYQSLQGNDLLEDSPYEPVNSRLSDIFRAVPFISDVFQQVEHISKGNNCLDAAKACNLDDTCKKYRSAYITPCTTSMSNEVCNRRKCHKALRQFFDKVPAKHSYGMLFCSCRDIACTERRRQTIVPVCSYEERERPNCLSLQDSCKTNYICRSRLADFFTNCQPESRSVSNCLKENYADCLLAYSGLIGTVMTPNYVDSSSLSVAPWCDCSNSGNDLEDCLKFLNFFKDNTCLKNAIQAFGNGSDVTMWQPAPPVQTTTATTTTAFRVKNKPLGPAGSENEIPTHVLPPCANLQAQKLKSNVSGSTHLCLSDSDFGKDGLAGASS
T1 sequence (P35546 29-1115): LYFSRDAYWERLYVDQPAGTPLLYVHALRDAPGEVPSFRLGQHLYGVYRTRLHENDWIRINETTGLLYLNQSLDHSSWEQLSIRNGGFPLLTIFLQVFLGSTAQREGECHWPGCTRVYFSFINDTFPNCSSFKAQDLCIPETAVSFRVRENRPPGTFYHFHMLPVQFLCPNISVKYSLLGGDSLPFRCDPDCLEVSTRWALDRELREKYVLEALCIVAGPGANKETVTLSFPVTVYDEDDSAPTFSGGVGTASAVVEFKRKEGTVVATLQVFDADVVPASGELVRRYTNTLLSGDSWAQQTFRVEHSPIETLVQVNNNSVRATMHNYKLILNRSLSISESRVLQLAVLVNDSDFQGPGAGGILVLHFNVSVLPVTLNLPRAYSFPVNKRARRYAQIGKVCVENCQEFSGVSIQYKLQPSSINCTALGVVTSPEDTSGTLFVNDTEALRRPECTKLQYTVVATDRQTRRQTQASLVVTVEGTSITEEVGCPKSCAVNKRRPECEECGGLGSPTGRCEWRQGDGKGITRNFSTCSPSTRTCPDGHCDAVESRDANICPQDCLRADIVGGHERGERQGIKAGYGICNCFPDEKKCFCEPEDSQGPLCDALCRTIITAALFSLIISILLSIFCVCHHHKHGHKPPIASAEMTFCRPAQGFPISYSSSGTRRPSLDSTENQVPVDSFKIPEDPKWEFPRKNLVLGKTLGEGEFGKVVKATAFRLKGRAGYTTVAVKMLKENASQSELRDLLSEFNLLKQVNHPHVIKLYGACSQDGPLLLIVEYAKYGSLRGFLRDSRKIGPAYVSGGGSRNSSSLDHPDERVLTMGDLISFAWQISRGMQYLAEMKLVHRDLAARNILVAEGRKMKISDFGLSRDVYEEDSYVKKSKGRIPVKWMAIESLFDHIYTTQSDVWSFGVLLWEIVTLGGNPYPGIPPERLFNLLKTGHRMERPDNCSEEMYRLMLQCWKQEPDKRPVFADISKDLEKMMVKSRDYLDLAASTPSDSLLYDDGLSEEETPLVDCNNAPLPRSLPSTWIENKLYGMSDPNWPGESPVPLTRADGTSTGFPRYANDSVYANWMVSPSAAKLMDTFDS
T2 sequence (O00451 22-444 limits assumed): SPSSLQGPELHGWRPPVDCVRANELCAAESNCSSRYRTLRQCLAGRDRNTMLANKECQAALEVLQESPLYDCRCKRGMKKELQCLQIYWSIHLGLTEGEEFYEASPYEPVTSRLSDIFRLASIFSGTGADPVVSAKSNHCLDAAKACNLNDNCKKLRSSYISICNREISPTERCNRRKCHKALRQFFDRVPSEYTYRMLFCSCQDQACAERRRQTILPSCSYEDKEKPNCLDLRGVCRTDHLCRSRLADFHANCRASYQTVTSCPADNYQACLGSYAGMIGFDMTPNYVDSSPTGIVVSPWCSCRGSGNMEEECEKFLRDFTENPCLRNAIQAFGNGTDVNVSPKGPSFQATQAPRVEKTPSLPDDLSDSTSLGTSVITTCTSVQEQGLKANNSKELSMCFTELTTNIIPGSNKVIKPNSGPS
T2 sequence (P07949 29-1114): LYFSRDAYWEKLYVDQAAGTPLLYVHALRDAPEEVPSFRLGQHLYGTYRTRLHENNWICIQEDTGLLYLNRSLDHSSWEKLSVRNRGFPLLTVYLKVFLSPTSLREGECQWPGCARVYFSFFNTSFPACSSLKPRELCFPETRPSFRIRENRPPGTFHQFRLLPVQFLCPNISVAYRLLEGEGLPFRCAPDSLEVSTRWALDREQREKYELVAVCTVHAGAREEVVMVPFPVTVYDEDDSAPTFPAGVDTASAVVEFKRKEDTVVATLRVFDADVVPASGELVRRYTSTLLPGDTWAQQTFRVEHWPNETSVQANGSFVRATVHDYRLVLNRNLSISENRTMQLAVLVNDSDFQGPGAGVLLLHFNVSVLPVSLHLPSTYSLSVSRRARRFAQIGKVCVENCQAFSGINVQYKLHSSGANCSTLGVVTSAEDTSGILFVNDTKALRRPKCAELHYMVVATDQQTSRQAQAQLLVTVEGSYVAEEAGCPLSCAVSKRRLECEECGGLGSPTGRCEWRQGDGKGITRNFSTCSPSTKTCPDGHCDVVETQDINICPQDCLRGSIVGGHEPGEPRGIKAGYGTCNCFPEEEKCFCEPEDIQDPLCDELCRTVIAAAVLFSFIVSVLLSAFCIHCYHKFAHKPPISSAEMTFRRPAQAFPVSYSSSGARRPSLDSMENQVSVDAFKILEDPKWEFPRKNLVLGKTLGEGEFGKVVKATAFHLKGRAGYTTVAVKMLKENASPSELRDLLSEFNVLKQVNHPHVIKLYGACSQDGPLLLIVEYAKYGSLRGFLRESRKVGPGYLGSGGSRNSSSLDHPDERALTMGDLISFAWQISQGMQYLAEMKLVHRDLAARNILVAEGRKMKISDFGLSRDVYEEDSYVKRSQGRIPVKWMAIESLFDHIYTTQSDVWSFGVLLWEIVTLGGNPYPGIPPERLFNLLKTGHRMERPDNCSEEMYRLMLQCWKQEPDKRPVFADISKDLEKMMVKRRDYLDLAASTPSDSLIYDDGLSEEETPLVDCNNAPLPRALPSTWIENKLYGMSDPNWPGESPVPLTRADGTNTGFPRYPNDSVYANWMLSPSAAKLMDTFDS

SMILES: CCN(CC)CCCC(C)Nc1cc(/C=C/c2ccccc2Cl)nc2cc(Cl)ccc12 (stereo not drawn) [XIB4035, N4-{7-chloro-2-[(E)-2-(2-chloro-phenyl)-vinyl]-quinolin-4-yl}-N1,N1-diethyl-pentane-1,4-diamine]
- induction of RET phosphorylation (GFRα1/RET; XIB4035 alone, 10 minutes): did not induce RET phosphorylation
- RET phosphorylation at the 60 min time-point compared to ligand alone (GFRα1/RET; XIB4035 and ligand co-treatment, 60 minutes after washout): clearly prolonged
- RET phosphorylation at 60 min (GFRα2/RET): detected
